Each structure is given as a SMILES string. Counter-ions that a name gives are not always drawn.

Data set [1] has as its system trypsin. Description: Insulin digestion in immobilized enzyme reactor, buffer screening (Table 7). Type of data set: biochemical, porcine. The settings on record: IMER; for Digested / Peptide / Undigested: 70°C, 60 s; for digestion efficiency: CaCl2 as high as 500 mM.
Data set [2] relates to T1, porcine trypsin.
T1 construct: purchased
Description: Insulin digestion by trypsin in solution, buffer screening (Table 9). Type of data set: biochemical. The settings on record: for Digested / Peptide / Undigested: 37°C, 18 h; for trypsin digestion: high concentrations, as high as 500 mM.

The test system of data set [3] is BSA. Description: Screen of additives for prevention of aggregation (Table 5). The settings on record: 12.5 mg/mL BSA, 70°C, four columns in printed order, heads missing. Format: physicochemical, bovine.
For data set [4], the system named is T1, porcine trypsin. Description: Comparing digestion buffers, solution digestion of insulin. Type of data set: biochemical. The settings on record: 37°C, 18 hours, versus tris buffer containing calcium chloride.
The nature of data set [5]: Plasma digestion with buffer/additive combinations, aggregation. Type of data set: physicochemical, beagle. The settings on record: 10% in 50mM TBS, 100mM CaCl2; 90 minutes.
Data set [6] has as its system trypsin. Kind of data set: Human IgG digestion in response to calcium concentration (Table 11). Format: biochemical, porcine. The settings on record: CaCl2 above 1 mM.

In the case of `N=C(N)N` [Gdn HC1, guanidine hydrochloride], the Digested in data set [1] (0.5M) is 723258; in data set [1] (1M) it was 423606; in data set [1] (2M) it was 136773; in data set [1] (4M), 40578; in data set [1] (6M), 9402; in data set [2] (0.5M), 216251. For the same compound, the Digested in data set [2] (1M) is recorded as 215746; in data set [2] (2M), 184318; in data set [2] (4M) it was 30954; in data set [2] (6M), 5871. Further, the Peptide in data set [1] (0.5M) turned out to be 309390; in data set [1] (1M) it was 179523; in data set [1] (2M) it was 56700; in data set [1] (4M), 15000; in data set [1] (6M), 2447; in data set [2] (0.5M), 101735. Also, the Peptide in data set [2] (1M) was 94828; in data set [2] (2M) it was 67546; in data set [2] (4M), 11014; in data set [2] (6M), 1647. The Undigested in data set [1] (0.5M) worked out at 4114993; in data set [1] (1M), 4328875; in data set [1] (2M), 4244827; in data set [1] (4M) it was 4562051; in data set [1] (6M), 4396495; in data set [2] (0.5M), 5487176. Also, the Undigested in data set [2] (1M) is 5229914; in data set [2] (2M) it was 5455780; in data set [2] (4M) it was 6195166; in data set [2] (6M), 5301367. The aggregation result in data set [3] (0.5M, listed as Guanidine HC1, hydrochloride) was “N and Ν”.
For `C[C@H](CCC(=O)O)[C@H]1CC[C@H]2[C@@H]3CC[C@@H]4C[C@H](O)CC[C@]4(C)[C@H]3C[C@H](O)[C@]12C` [Deoxycholate], the aggregation result in data set [3] (additive concentration not given) was “Υ”.
For the compound `N.O=C(O)O` [ammonium bicarbonate], the enzyme activity entry in data set [4] was “significantly higher”.
On to `NC=O` [Formamide], for which the Digested in data set [1] (5%) came out at 1424720; in data set [1] (10%) it was 745680; in data set [1] (15%), 375288; in data set [1] (20%) it was 200621; in data set [2] (5%), 1126069; in data set [2] (10%) it was 1509456. For the same compound, the Digested is given as 973971 in data set [2] (15%) and 470938 in data set [2] (20%). For the same compound, the Peptide stood at 580956 in data set [1] (5%); 305599 in data set [1] (10%); 155245 in data set [1] (15%); 82549 in data set [1] (20%); 500704 in data set [2] (5%); 693291 in data set [2] (10%). Further, the Peptide in data set [2] (15%) is 421130; in data set [2] (20%), 194156. Moreover, the Undigested in data set [1] (5%) is 3061491; in data set [1] (10%), 3827192; in data set [1] (15%), 4129486; in data set [1] (20%), 4430620; in data set [2] (5%), 3871868; in data set [2] (10%) it was 4196754. Further, the Undigested in data set [2] (15%) is reported as 4281392; in data set [2] (20%) it was 4620417. The aggregation result in data set [5] is “significant aggregation”.
For the compound `CN(C)C=O` [DMF, dimet ylformamide], the aggregation entry in data set [3] (20%) was “Y and Υ”.
Take `C[C@H](CCC(=O)[O-])[C@H]1CC[C@H]2[C@@H]3CC[C@@H]4C[C@H](O)CC[C@]4(C)[C@H]3C[C@H](O)[C@]12C.[Na+]` [SDC, sodium deoxycholate]: the Digested in data set [1] (0.1%) is given as 296346; in data set [1] (0.2%), 94589; in data set [1] (0.5%) it was 12088; in data set [1] (1%) it was 8134; in data set [2] (0.1%), 1284656; in data set [2] (0.2%), 12332. Also, the Digested in data set [2] (0.5%) turned out to be 114517; in data set [2] (1%), 124131. For the same compound, the Peptide in data set [1] (0.1%) worked out at 101770; in data set [1] (0.2%), 30902; in data set [1] (0.5%), 1351; in data set [1] (1%) it was 1275; in data set [2] (0.1%), 5961; in data set [2] (0.2%), 480241. The values for the Peptide in data set [2] (0.5%) and in data set [2] (1%) were 361200 and 239833, respectively. The Undigested in data set [1] (0.1%) is 4216641; in data set [1] (0.2%), 5010947; in data set [1] (0.5%), 1648635; in data set [1] (1%), 284843; in data set [2] (0.1%) it was 3123245; in data set [2] (0.2%), 29962. In addition, the Undigested is reported as 499326 in data set [2] (0.5%) and 1149062 in data set [2] (1%).
Regarding `CC(C)O` [IPA, isopropyl alcohol], the Digested was 696091 in data set [1] (5%); 208098 in data set [1] (10%); 126129 in data set [1] (15%); 135325 in data set [1] (20%); 1024085 in data set [2] (5%); 1133300 in data set [2] (10%). Further, the figures for the Digested in data set [2] (15%) and in data set [2] (20%) were 906822 and 954036, respectively. The Peptide in data set [1] (5%) was 291902; in data set [1] (10%), 86945; in data set [1] (15%), 52332; in data set [1] (20%), 55155; in data set [2] (5%), 407876; in data set [2] (10%), 418703. Moreover, the Peptide in data set [2] (15%) came out at 322103; in data set [2] (20%) it was 347874. For the same compound, the Undigested in data set [1] (5%) is 4427643; in data set [1] (10%), 5774155; in data set [1] (15%), 5930073; in data set [1] (20%), 5148164; in data set [2] (5%), 3528233; in data set [2] (10%), 3935383. Besides, the figures for the Undigested in data set [2] (15%) and in data set [2] (20%) were 4509078 and 4992140, respectively.
In the case of `[Ca+2].[Cl-].[Cl-]` [CaCl2, calcium chloride], the Digested in data set [1] (0.05M) was 2725600; in data set [1] (0.1M), 2844924; in data set [1] (0.25M), 2950068; in data set [1] (0.5M), 3031625; in data set [1] (1M), 3066738; in data set [2] (0.05M) it was 2007752. The Digested in data set [2] (0.1M) was found to be 2377399; in data set [2] (0.25M), 3241428; in data set [2] (0.5M), 3340960; in data set [2] (1M), 3203158. In addition, the Peptide stood at 1172085 in data set [1] (0.05M); 1221898 in data set [1] (0.1M); 1264212 in data set [1] (0.25M); 1290650 in data set [1] (0.5M); 1263872 in data set [1] (1M); 860714 in data set [2] (0.05M). For the same compound, the Peptide came out at 1074482 in data set [2] (0.1M), 1430859 in data set [2] (0.25M), 1474912 in data set [2] (0.5M) and 1344334 in data set [2] (1M). Moreover, the Undigested in data set [1] (0.05M) is given as 802494; in data set [1] (0.1M), 609138; in data set [1] (0.25M) it was 571246; in data set [1] (0.5M), 234332; in data set [1] (1M), 16129; in data set [2] (0.05M), 2746822. The Undigested in data set [2] (0.1M) was found to be 2139571; in data set [2] (0.25M), 2885626; in data set [2] (0.5M) it was 856015; in data set [2] (1M) it was 949033. Moreover, the figures for the digestion efficiency result in data set [1] and in data set [1] (listed as calcium chloride) were “An increase in digestion was observed” and “digestion efficiency increased dramatically”, respectively. In addition, the trypsin digestion entry in data set [2] is “An increase in digestion was observed”; in data set [2] (listed as calcium chloride), “dramatically improve trypsin digestion”. For the same compound, in data set [6], the enzyme efficiency entry is reported as “increase enzyme efficiency”.
